Measured values as given in patent US11519922B2, “Methods for identifying risk of chemotherapy-induced cardiotoxicity and targeted medical intervention” (Detroit R&D, Inc., priority 2018, dated 2022).
Entries after “also recorded” stand apart in the source; their conditions may differ.

Tests used:
[1] = tested on: H9c2 rat cardiomyocytes; test: MTT cell viability assay; format: cell-based; settings: 1 μM DOX 2 hr, then fresh media 24 hr; compared to untreated control cells
Method: Cell viability was determined using the 3-[4,5-dimethylthiazol-2-yl]-2,5-diphenyltetrazolium bromide (MTT) assay (13) for cells incubated with and without 1 μM of DOX in media for 2 hr followed by fresh media for another 24 hours. The DOX treated cells maintained more than 90% cell viability compared to untreated control cells.
Rat H9c2 cell line was purchased from American Type Culture Collection (Manassas, Va.) and cultured on polystyrene culture plates in a humidified incubator at 37° C. in an atmosphere of 5% CO2 and 95% air. The H9c2 cells were grown in high glucose DMEM supplemented with 4.5 g/l glucose, 0.15% sodium bicarbonate, 0.11% sodium pyruvate, 10% fetal bovine serum, […], 100 IU/ml penicillin and 10 μg/ml streptomycin. When cells reached 80-90% confluency, media was replaced with media containing 1 μM DOX (Sigma) dissolved in DMSO. Cells were treated for 2 hr and collected immediately (0 hr) or washed and kept for 2, 6 and 24 hr in media without DOX.
The effect of DOX on cell viability was determined by 3-[4,5-dimethylthiazol-2-yl]-2,5-diphenyltetrazolium bromide (MTT) assay (13).

[2] = tested on: H9c2 rat cardiomyocytes; test: Cell hypertrophy assay (cell surface area, ImageJ); format: cell-based; settings: 1 μM DOX 2 hr
Method: Cells were treated for 2 hr with media containing 1 μM DOX, washed and kept for 2, 6 and 24 hr in media without DOX. Cell sizes (cell surface area) were measured using image J software. Results expressed as mean±SD (n=6-44);
Increased cell surface area (hypertrophy) was found at 6 hr and 24 hr after DOX treatment (p<0.05) whereas no changes were observed after 2 hr (˜100 cells measured/group) (FIG. 2).
For cell hypertrophy assay, rat H9c2 cells grown overnight in a plate containing a glass cover slip were fixed at 2, 6 and 24 hr after 2 hr 1 μM DOX treatment and stained with hematoxylin and eosin and images were taken using a using a Zeiss Axiovert microscope. ImageJ software was used to measure the surface area of the cells.

[3] = tested on: H9c2 rat cardiomyocytes; test: 14,15-DHET in cell media by ELISA; format: cell-based; settings: 1 μM DOX 2 hr
Method: FIGS. 1A and 1B show the effect of doxorubicin (DOX) on H9c2 rat cardiomyocytes. Cells were treated for 2 hr with media containing 1 μM DOX, washed and kept for 2, 6 and 24 hr in media without DOX. BNP mRNA levels in H9c2 cells were assessed by qRT-PCR (A) and cell media was collected and extracted with ethyl acetate for 14,15-DHET analyses using ELISA kit (Detroit R&D) (B). *p<0.05;
H9c2 cardiomyocytes were treated for 2 hr with and without 1 μM DOX. Levels of 14,15-DHET in cell media increased ˜3-fold (p<0.05) after a 2 hr recovery period prior to detection of cellular hypertrophy at 6 hr and 24 hr recovery periods.
Levels of 14,15-DHET in cardiomyocyte (H9c2 cell) media were assessed by the Detroit R&D 14,15-DHET ELISA. Media, 2 ml, was extracted with 2 ml […]. and levels of 14,15-DHET increased after 2 hr, 6 hr and 24 hr following 2 hr DOX treatment (2 hr, 6 hr and 24 hr recovery) (FIG. 1B).

[4] = tested on: rat serum; test: Serum fatty acid biomarkers by ELISA in DOX-treated female rats; format: in vivo; settings: DOX 3 mg/kg/week 2 weeks
Method: To verify that 14,15-DHET levels can be used as an early biomarker for prediction of DOX-dependent cardiotoxicity as previously found in the rat cardiomyocyte study (FIG. 1 and FIG. 2), levels of 14,15-DHET (sEH metabolite) in serum samples from control and DOX-treated rats with and without 2-week recovery were measured using a 14,15-DHET ELISA kit (Detroit R&D).
Levels of 20-HETE (CYP4A/4F-dependent hypertension biomarker) and 8-isoprostane (non-enzymatic oxidative stress biomarker) in rat serum samples were also measured using 20-HETE and 8-isoprostane ELISA kits, respectively, from Detroit R&D.
Biologically active fatty acids were extracted with ethyl acetate from 75 μl of serum samples (n=4) from control and DOX-treated animals with and without 2 weeks recovery. […] However, two weeks after the second injection (2 weeks recovery), when cardiotoxicity was still not detected, levels of 14,15-DHET (a metabolite of soluble epoxide hydrolase) and 8-isoprostane (non-enzymatic oxidative stress biomarker) were increased compared to the control group (FIG. 3B and FIG. 3D). No changes in levels of 20-HETE in rat serum samples between the two groups were observed (FIG. 3C).

[5] = Cardiotoxicity / LVEF in breast cancer patients after DOX treatment; format: in vivo, human
Text: Chemotherapy-associated cardiotoxicity is defined as either a cardiomyopathy with a reduction of left ventricular ejection fraction (LVEF) ≥5% to <55% with symptoms of heart failure or an asymptomatic reduction of LVEF ≥10% to <55% by the Cardiac Review and Evaluation Committee (CREC) (7).

[6] = tested on: plasma of breast cancer patients; test: Plasma troponin I (TnI) in breast cancer patients after DOX treatment; format: in vivo, human
[7] = tested on: plasma of breast cancer patient; test: 14,15-DHET nanowell label-free analysis of patient plasma; format: in vivo, human; settings: Patient #4, 10-fold diluted plasma, after vs before 3 months DOX, n=4
Method: The plasma samples of Patient #4 (10-fold diluted) who developed DOX-dependent cardiotoxicity 3 and 6 months after completion of the 3 months DOX treatment were obtained before and after 3 months DOX treatment (FIG. 4).
The bare gold surface of the 8-channel 90 nm or 200 nm nanowell electrode (Detroit R&D) was coated with a self-assembly monolayer (SAM) by incubating the electrode with 10 mM of 11-mercaptoundecanoic acid (MUA) (Sigma) for 1 hr at room temperature and activated using 50 mM EDC and 50 mM NHS. The 14,15-DHET IgG (Detroit R&D) (FIG. 6A) or TnI IgG (Detroit R&D) (FIG. 6B) in PBS (2.5 μg/ml) was added to the EDC/NHS-activated electrode. The IgG level to obtain optimal results was experimentally obtained by using electrodes coated with various concentrations of IgG ranging 1 to 10 μg/ml.

Structure (SMILES): COc1cccc2c1C(=O)c1c(O)c3c(c(O)c1C2=O)C[C@@](O)(C(=O)CO)C[C@@H]3O[C@H]1C[C@H](N)[C@H](O)[C@H](C)O1 [DOX, doxorubicin]
- cell viability [1]: more than 90%
- cell surface area (hypertrophy) ([2]; 2 hr recovery): no changes
- cell surface area (hypertrophy) ([2]; 6 hr and 24 hr recovery): increased
- 14,15-DHET levels in cell media ([3]; 6 and 24 hr recovery): remained elevated; also recorded: increased
- increase of 14,15-DHET in cell media ([3]; 2 hr recovery): ~3 fold
- Serum 20-HETE ([4]; 2 weeks recovery): No change
- Serum 8-Isoprostane ([4]; no recovery (~48 hr)): did not significantly change; also recorded: No change
- Serum 14,15-DHET ([4]; no recovery (~48 hr)): did not significantly change; also recorded: No change
- Serum 20-HETE ([4]; no recovery (~48 hr)): did not significantly change; also recorded: No change
- cardiotoxicity detected ([5]; 5 breast cancer patients, at completion of 3 months of DOX treatment): no cardiotoxicity
- reduction of LVEF ([5]; Patient #3, 3 months after 3 months of DOX treatment was completed): ~28%
- reduction of LVEF ([5]; Patient #4, 3 months after 3 months of DOX treatment was completed): 22%
- reduction of LVEF ([5]; Patients #3 and #4, 6 months after 3 months of DOX treatment was completed): around 20%
- reduction of LVEF ([5]; Patients #3 and #4, at 3 and 6 months after DOX treatment was completed): higher than 20%
- change of LVEF ([5]; the other patients (#1, #2, #5), at 3 and 6 months after DOX treatment): no significant changes
- plasma troponin I (TnI) levels ([6]; Patient #3, 3 months after 3 months of DOX treatment): increased
- plasma troponin I (TnI) levels ([6]; Patient #4, 3 months after 3 months of DOX treatment): decreased
- plasma troponin I (TnI) levels ([6]; Patients #1, #2 and #5 (no cardiotoxicity), 3 months after 3 months of DOX treatment): increased
- increase of plasma 14,15-DHET level (nanowell) [7]: ~20 fold
